Measured values from patent US10238713B2, “Cyclic tetrapeptides and therapeutic applications thereof” (LODZ UNIVERSITY OF TECHNOLOGY, priority 2010, dated 2019).
Where two headings read alike, the source gives them in different places. Non-standard residues stand in square brackets, D forms with d. Residues, ends and D or L forms follow the SMILES beside them. β3hF = N[C@H](CC(=O)O)Cc1ccccc1

Experiments:
[1] = test system: LPS-induced TNF-α production; assay type: cell-based; settings: for % inhibition vs. DMSO / TNF-α: Table 2A
Protocol: Human whole blood was diluted 10-fold with RPMI-1640 medium and distributed to 24-well culture plates in 1 ml aliquots. LPS was added to the culture at a concentration of 1 μg/ml. The studied peptides were used at concentrations of 1, 10 and 100 μg/ml. After overnight incubation, the supernatants were harvested and frozen at −20° C. until cytokine determination. TNF-α activity was determined using a bioassay. Briefly, WEHI 164.13 cells (ATCC CRL 1751) were seeded at a concentration of 2×10^4 cells/well in quadriplicate. Increasing dilutions of the assayed supernatant were mixed with the target cells in the presence of actinomycin D (1 μg/ml). After 20 h of incubation, MTT was added into the wells, and the cultures were incubated for an additional 4 h. […] The detection limit of the assay was about 2.5 pg/ml. One unit of TNF-α activity was defined as an inverse of supernatant dilution where 50% cell death took place. The cultures labeled “Control (−)” contained no LPS. The cultures labeled “Control (LPS)” contained LPS and none of the studied compounds. Statistical analysis was not applied since the data derive from single cultures (wells).

[2] = test system: BALB/c mice, contact sensitivity to oxazolone; experiment: Contact sensitivity to oxazolone in BALB/c mice (ear edema, draining lymph node cells, auricle histology); assay type: in vivo
Protocol: Mice: BALB/c female mice, 8-10 week-old, delivered by the Institute of Laboratory Medicine, Łódź, Poland, were used for the study. The mice were fed a commercial, pelleted food and water ad libitum. The local ethics committee approved the study.
The test was performed according to Noonan et al. (Int. Arch. Allergy Appl. Immunol., 1978, 56, 523-532), with some modifications. Mice were shaved on the abdomen (2×2 cm area) and after 24 h 100 μl of 0.5% oxazolone in acetone was applied to the shaved area. The contact sensitivity reaction was elicited 5 days later by application of 50 μl of 1% oxazolone in acetone on both sides of the ears. Ear edema was measured 48 h later using a spring caliper. The results were presented as antigen-specific increase of ear thickness (i.e. the background (BG) ear thickness of mice was subtracted from the measured thickness).
In the experiment shown, the compound of formula I-A was applied topically as a 0.1% ointment on both sides of the ears (total volume of 50 μl per ear), at 24 h and 26 h after elicitation of the reaction with the second dose of oxazolone. Reference compounds were used in a similar fashion in the form of commercially available preparations.
Superficial parotid, mandibular and accessory mandibular lymph nodes were isolated, homogenized by pressing against a stainless screen into phosphate buffered solution (PBS), washed twice and re-suspended in PBS containing 0.2% Trypan blue. The total and nonviable cell numbers were determined using a light microscope and Bürker's hemocytometer. Mice treated only with the eliciting dose of antigen served as a background control.
The auricles were fixed in 4% formalin solution for 48 h, washed for 24 h, dehydrated in an alcohol series and embedded in paraffin. The paraffin blocks were sliced in a Micron HM310 microtome into 6 μm sections. The sections were stained with haematoxylin and eosin and with toluidine blue. The histological analysis was performed in a Nikon Eclipse 801 light microscope. On the histological slides containing cross-sections of auricles, the morphometric estimations of neutrophils, macrophages, lymphocytes and mast cells in the perivascular and subepithelial connective tissue were performed. The cells were counted on the area of 0.07 mm^2 at 400× magnification. Morphometric analysis was done with the aid of imagine software NIS-Elements (Nikon). For every examined group, 25 enumerations of neutrophils, macrophages, lymphocytes and mast cells were carried out.

## O=C1C[C@H](Cc2ccccc2)NC(=O)[C@@H]2CCCN2C(=O)[C@@H]2CCCN2C(=O)[C@H](Cc2ccccc2)N1 [I-A] (cyclo(FPP[β3hF]))
[1]; compound 1 μg/ml
  % inhibition vs. DMSO: 9.8%
[1]; compound 1 μg/ml, LPS 1 μg/ml, overnight
  TNF-α: 7364 pg/mL
[1]; compound 10 μg/ml
  % inhibition vs. DMSO: 10.4%
  TNF-α: 7176 pg/mL
[1]; compound 100 μg/ml
  % inhibition vs. DMSO: 9.2%
[1]; compound 100 μg/ml (DMSO only: 196)
  TNF-α: 178 pg/mL
[1]; Table 2B, compound 1 μg/ml
  % of inhibition vs. DMSO: 10.0%
  TNF alpha: 4097 pg/mL
[1]; Table 2B, compound 10 μg/ml
  TNF alpha: 4416 pg/mL
[1]; Table 2B, compound 100 μg/ml (DMSO only: 854)
  TNF alpha: 979 pg/mL
[2]; topical treatment, compared to control non-treated mice, FIG. 3
  toxic effect on draining lymph node cells (proportions of viable and dead cells): negligible toxic effect
[2]; topical treatment, FIG. 2
  number of cells in the draining lymph nodes: decreased the numbers of lymphocytes in the draining lymph nodes to the level registered in non-sensitized mice
[2]; topical treatment, FIG. 4
  cell number and composition in the inflamed auricles (histology): almost entirely reversed the changes observed in control mice
[2]; topical, I-A as 0.1% ointment, references as commercial preparations, 24 h and 26 h after elicitation, FIG. 1
  inhibition of the ear edema (antigen-specific increase of ear thickness): about 80%
